The source of these data is ChEMBL document CHEMBL5512632, “Unlocking the potential of 1,4-naphthoquinones: A comprehensive review of their anticancer properties” (Eur J Med Chem, 2024).

One assay concerns EL4. Put plainly: Antitumor activity against mouse EL4 cells implanted in C57BL/6 mouse assessed as increase in survival of animal at 2 mg/kg,ip administrated for 5 consecutive days for 3 weeks. The format is functional.
The nature of assay [1]: Cytotoxicity against human MCF7/LCC2 cells incubated for 7 days by MTT assay. The assay is classed as functional, cell-based. The settings on record: MCF7/LCC2, 168 h.
A short description of assay [2]: Cytotoxicity against human MCF7/LCC9 cells incubated for 7 days by MTT assay. The assay is classed as functional, cell-based. The settings on record: MCF7, 168 h. Background: Formazan colour is commonly taken as a measure of viable cells.
The test system of assay [3] is MCF7. Kind of assay: Cytotoxicity against human MCF7 cells incubated for 7 days by MTT assay. Conditions: MCF7, 168 h. The assay is classed as functional, cell-based.
The test system of assay [4] is MCF7. Put plainly: Antiproliferative activity against human MCF7 cells assessed as inhibition of cell growth incubated for 48 hrs by crystal violet staining based ELISA. The assay is classed as functional. The settings on record: MCF7, 48 h. Background: In an ELISA, binding on a coated surface is turned into a signal by an enzyme label.
In a further assay the test system is HL-60. Kind of assay: Cytotoxicity against human HL-60 cells assessed as reduction in cell viability incubated for 48 to 72 hrs by MTT assay. The assay is classed as functional, cell-based.
The subject of a further assay is MDA-MB-231. Put plainly: Antiproliferative activity against human MDA-MB-231 cells assessed as inhibition of cell growth incubated for 48 hrs by crystal violet staining based ELISA. The assay is classed as functional. Conditions: MDA-MB-231, 48 h.

On to `CC1=CC(=O)c2c(O)cccc2C1=O` [PLUMBAGIN], for which the Activity in the assay on EL4 is recorded as 80%. Besides, the IC50 in assay [1] worked out at 1000 nM; in assay [2] it was 1000 nM; with MCF7 [3], 1000 nM; in the assay with MCF7 [4] it was 1500 nM; with HL-60, 1500 nM; in the assay on MDA-MB-231, 1500 nM.

As usually defined, the IC50 is the concentration at which inhibition is half-maximal.
